biological target: T1, human type 1 glycine transporter (GlyT1) (Homo sapiens, UniProt P48067); experiment: Glycine uptake inhibition experiment ([3H] glycine uptake in T98G cells expressing GlyT1); type: cell-based; conditions: not given
T1 construct: T98G cells (glioma cells) expressing human type 1 glycine transporter (GlyT1) were used; endogenous in cells; host or cells: T98G cells (human glioma cells)
T1 sequence (P48067 1-706): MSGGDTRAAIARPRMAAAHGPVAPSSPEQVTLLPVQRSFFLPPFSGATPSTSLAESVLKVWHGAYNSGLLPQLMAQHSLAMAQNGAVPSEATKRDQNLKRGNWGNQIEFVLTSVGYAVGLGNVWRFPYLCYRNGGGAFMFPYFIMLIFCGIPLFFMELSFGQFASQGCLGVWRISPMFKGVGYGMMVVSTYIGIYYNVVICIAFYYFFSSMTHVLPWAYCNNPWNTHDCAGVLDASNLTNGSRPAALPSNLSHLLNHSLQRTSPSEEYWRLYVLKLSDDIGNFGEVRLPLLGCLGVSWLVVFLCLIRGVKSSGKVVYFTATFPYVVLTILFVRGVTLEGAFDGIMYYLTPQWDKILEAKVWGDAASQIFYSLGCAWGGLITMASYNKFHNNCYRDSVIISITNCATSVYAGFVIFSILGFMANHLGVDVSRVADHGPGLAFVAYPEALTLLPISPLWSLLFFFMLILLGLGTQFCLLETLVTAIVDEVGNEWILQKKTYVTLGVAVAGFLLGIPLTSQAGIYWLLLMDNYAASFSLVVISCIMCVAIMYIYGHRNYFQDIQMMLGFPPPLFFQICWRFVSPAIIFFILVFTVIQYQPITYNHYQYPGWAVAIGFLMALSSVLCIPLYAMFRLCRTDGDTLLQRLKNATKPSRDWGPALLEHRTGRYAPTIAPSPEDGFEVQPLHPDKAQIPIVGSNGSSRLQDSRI
Outline: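 T98G glioma cells expressing human GlyT1 were pretreated 10 min with compound in HEPES buffer pH 7.4 (0.2% BSA), then incubated with compound plus 250 nM final [3H]glycine for 15 min at room temperature. Intracellular radioactivity was counted after NaOH lysis; 10 μM ALX5407 defined non-specific uptake. IC50 came from 10^−9–10^−5 M curves.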

Row | Structure (SMILES) | IC50 [nM]
1 | C[C@H](O)c1cccc2c1C(F)(F)C(=O)N2Cc1cnc(Cl)cc1Cl [Compound 223, 1-[(4,6-dichloropyridin-3-yl)methyl]-3,3-difluoro-4-[(1S)-1-hydroxyethyl]-1,3-dihydro-2H-indol-2-one] | 66
2 | C[C@H](O)c1cccc2c1C(F)(F)C(=O)N2Cc1ccc(Cl)nc1Cl [Compound 224, 1-[(2,6-dichloropyridin-3-yl)methyl]-3,3-difluoro-4-[(1S)-1-hydroxyethyl]-1,3-dihydro-2H-indol-2-one] | 740
3 | C[C@H](O)c1cccc2c1C(F)(F)C(=O)N2Cc1ncccc1C(F)(F)F [Compound 227, 3,3-difluoro-4-[(1S)-1-hydroxyethyl]-1 {[3-(trifluoromethyl)pyridin-2-yl]methyl)-1,3-dihydro-2H-indol-2-one] | 380
4 | COc1nc(Cl)ccc1CN1C(=O)C(F)(F)c2c([C@H](C)O)cccc21 [Compound 230, 1-[(6-chloro-2-methoxypyridin-3-yl)methyl]-3,3-difluoro-4-[(1S)-1-hydroxyethyl]-1,3-dihydro-2H-indol-2-one] | 63
5 | COc1cc(Cl)ncc1CN1C(=O)C(F)(F)c2c([C@H](C)O)cccc21 [Compound 231, 1-[(6-chloro-4-methoxypyridin-3-yl)methyl]-3,3-difluoro-4-[(1S)-1-hydroxyethyl]-1,3-dihydro-2H-indol-2-one] | 140
6 | C[C@H](O)c1cccc2c1C(F)(F)C(=O)N2Cc1ncc(F)cc1C#N [Compound 233, 2-({3,3-difluoro-4-[(1S)-1-hydroxyethyl)-2-oxo-2,3-dihydro-1H-indol-1-yl}methyl)-5-fluoropyridine-3-carbonitrile] | 180
7 | O=C1N(Cc2cncc(Cl)c2)c2cc(F)cc(C(O)C(F)F)c2C1(F)F (centres unmarked) [Compound 234, 1-[(5-chloropyridin-3-yl)methyl)-4-(2,2-difluoro-1-hydroxyethyl)-3,3,6-trifluoro-1,3-dihydro-2H-indol-2-one] | 620
8 | C[C@H](O)c1cccc2c1C(F)(F)C(=O)N2Cc1ccc(C(F)(F)F)nc1Cl [Compound 239, 1-{[2-chloro-6-(trifluoromethyl)pyridin-3-yl]methyl}-3,3-difluoro-4-[(1S)-1-hydroxyethyl]-1,3-dihydro-2H-indol-2-one] | 220
9 | CCOc1ccc(CN2C(=O)C(F)(F)c3c([C@H](C)O)cccc32)cn1 [Compound 241, 1-[(6-ethoxypyridin-3-yl)methyl]-3,3-difluoro-4-[(1S)-1-hydroxyethyl]-1,3-dihydro-2H-indol-2-one] | 66
10 | C[C@H](O)c1cccc2c1C(F)(F)C(=O)N2Cc1ncc(Cl)cc1C#N [Compound 242] | 83
11 | C[C@H](O)c1cccc2c1C(F)(F)C(=O)N2Cc1cc(OC(F)F)ccn1 [Compound 245, 1-{[4-(difluoromethoxy)pyridin-2-yl]methyl}-3,3-difluoro-4-[(1S)-1-hydroxyethyl]-1,3-dihydro-2H-indol-2-one] | 110
12 | COc1cccnc1CN1C(=O)C(F)(F)c2c([C@H](C)O)cccc21 [Compound 247, 3,3-difluoro-4-[(1S)-1-hydroxyethyl]-1-[(3-methoxypyridin-2-yl)methyl]-1,3-dihydro-2H-indol-2-one] | 580
13 | C[C@H](O)c1cccc2c1C(F)(F)C(=O)N2Cc1ccc(Cl)nc1C#N [Compound 248, 6-chloro-3-({3,3-difluoro-4-[(1S)-1-hydroxyethyl]-2-oxo-2,3-dihydro-1H-indol-1-yl}methyl)pyridine-2-carbonitrile] | 1200

Results, then the compound that gave them:

Row | IC50 [nM] | Structure (SMILES)
14 | 8.6 | COc1ncc(CN2C(=O)C(F)(F)c3c([C@H](C)O)cccc32)cc1Cl [Compound 222, 1-[(5-chloro-6-methoxypyridin-3-yl)methyl]-3,3-difluoro-4-[(1S)-1-hydroxyethyl)-1,3-dihydro-2H-indol-2-one]
15 | 57 | C[C@H](O)c1cccc2c1C(F)(F)C(=O)N2Cc1ncc(Cl)cc1Cl [Compound 225, 1-[(3,5-dichloropyridin-2-yl)methyl]-3,3-difluoro-4-[(1S)-1-hydroxyethyl]-1,3-dihydro-2H-indol-2-one]
16 | 40 | C[C@H](O)c1cccc2c1C(F)(F)C(=O)N2Cc1ncc(F)cc1Br [Compound 226, 1-[(3-bromo-5-fluoropyridin-2-yl)methyl]-3,3-difluoro-4-[(1S)-1-hydroxyethyl]-1,3-dihydro-2H-indol-2-one]
17 | 2.1 | C[C@H](O)c1cccc2c1C(F)(F)C(=O)N2Cc1cnc(F)c(Br)c1 [Compound 228, 1-[(5-bromo-6-fluoropyridin-3-yl)methyl]-3,3-difluoro-4-[(1S)-1-hydroxyethyl]-1,3-dihydro-2H-indol-2-one]
18 | 1.7 | C[C@H](O)c1cccc2c1C(F)(F)C(=O)N2Cc1ccc(F)c(Br)n1 [Compound 229, 1-[(6-bromo-5-fluoropyridin-2-yl)methyl]-3,3-difluoro-4-[(1S)-1-hydroxyethyl)-1,3-dihydro-2H-indol-2-one]
19 | 32 | COc1cc(CN2C(=O)C(F)(F)c3c([C@H](C)O)cccc32)ncc1Cl [Compound 232, 1-[(5-chloro-4-methoxypyridin-2-yl)methyl)-3,3-difluoro-4-[(1S)-1-hydroxyethyl]-1,3-dihydro-2H-indol-2-one]
20 | 23 | C[C@H](O)c1cccc2c1C(F)(F)C(=O)N2Cc1cnc(F)c(C#N)c1 [Compound 235, 5-({3,3-difluoro-4-[(1S)-1-hydroxyethyl]-2-oxo-2,3-dihydro-1H-indol-1-yl}methyl)-2-fluoropyridine-3-carbonitrile]
21 | 4 | C[C@H](O)c1cccc2c1C(F)(F)C(=O)N2Cc1ccc(F)c(C#N)n1 [Compound 236, 6-({3,3-difluoro-4-[(1S)-1-hydroxyethyl]-2-oxo-2,3-dihydro-1H-indol-1-yl}methyl)-3-fluoropyiidine-2-carbonitrile]
22 | 2.9 | C[C@H](O)c1cccc2c1C(F)(F)C(=O)N2Cc1ccc(F)c(Cl)n1 [Compound 237, 1-[(6-chloro-5-fluoropyridin-2-yl)methyl]-3,3-difluoro-4-[(1S)-1-hydroxyethyl]-1,3-dihydro-2H-indol-2-one]
23 | 6.2 | C[C@H](O)c1cccc2c1C(F)(F)C(=O)N2Cc1ccc(C(F)(F)F)c(Cl)n1 [Compound 238, 1-{[6-chloro-5-(trifluoromethyl)pyridin-2-yl]methyl}-3,3-difluoro-4-[(1S)-1-hydroxyethyl]-1,3-dihydro-2H-indol-2-one]
24 | 60 | COc1cc(CN2C(=O)C(F)(F)c3c([C@H](C)O)cccc32)cnc1F [Compound 240, 3,3-difluoro-1-[(6-fluoro-6-methoxypyridin-3-yl)methyl]-4-[(1S)-1-hydroxyethyl]-1,3-dihydro-2H-indol-2-one]
25 | 57 | COc1nc(C(F)(F)F)ccc1CN1C(=O)C(F)(F)c2c([C@H](C)O)cccc21 [Compound 243, 3,3-difluoro-4-[(1S)-1-hydroxyethyl]-1-({2-methoxy-6-(trifluoromethyl)pyridin-3-yl]methyl}-1,3-dihydro-2H-indol-2-one]
26 | 9.7 | C[C@H](O)c1cccc2c1C(F)(F)C(=O)N2Cc1ccc(Cl)c(Cl)n1 [Compound 244, 1-[(5,6-dichloropyridin-2-yl)methyl]-3,3-difluoro-4-[(1S)-1-hydroxyethyl]-1,3-dihydro-2H-indol-2-one]
27 | 55 | COc1nc(CN2C(=O)C(F)(F)c3c([C@H](C)O)cccc32)ccc1F [Compound 246, 3,3-difluoro-1-[(5-fluoro-6-methoxypyridin-2-yl)methyl]-4-[(1S)-1-hydroxyethyl]-1,3-dihydro-2H-indol-2-one]
28 | 58 | COc1nc(CN2C(=O)C(F)(F)c3c([C@H](C)O)cccc32)ccc1Cl [Compound 249, 1-[(5-chloro-6-methoxypyridin-2-yl)methyl]-3,3-difluoro-4-[(1S)-1-hydroxyethyl]-1,3-dihydro-2H-indol-2-one]
29 | 9.8 | C[C@H](O)c1cccc2c1C(F)(F)C(=O)N2Cc1cc(Cl)c(F)cn1 [Compound 250]
30 | 20 | C[C@H](O)c1cccc2c1C(F)(F)C(=O)N2Cc1cnc(Cl)c(C#N)c1 [Compound 251, 2-chloro-5-({3,3-difluoro-4-[(1S)-1-hydroxyethyl]-2-oxo-2,3-dihydro-1H-indol-1-yl)methyl)pyridine-3-carbonitrile]
31 | 46 | O=C1N(Cc2cncc(Cl)c2)c2c(F)ccc(C(O)C(F)F)c2C1(F)F (centres unmarked) [Compound 252, 1-[(5-chloropyridin-3-yl)methyl]-4-(2,2-difluoro-1-hydroxyethyl)-3,3,7-trifluoro-1,3-dihydro-2H-indol-2-one]

same assay, conditions: table section whose head prints (μm)

Row | IC50 [nM] | Structure (SMILES)
32 | 250 | COc1cc(CN2C(=O)C(F)(F)c3c([C@H](C)O)cccc32)ncc1F [Compound 261, 3,3-difluoro-1-[(5-fluoro-4-methoxypyridin-2-yl)methyl)-[(1S)-1-hydroxyethyl]-1,3-dihydro-2H-indol-2-one]
